# Measured values: ChEMBL document CHEMBL6096724, “Sulfonium Moieties as Ammonium Bioisosteres: Novel Ligands for the Alpha7 Nicotinic Acetylcholine Receptor” (J Med Chem, 2025)
# Active and inactive are the calls of the source. The rule behind the calls is not given here.
# Assays:
# [1] = target: T1, Neuronal acetylcholine receptor subunit alpha-9 (Homo sapiens, UniProt Q9UGM1); assay: Antagonist activity at human alpha9 nAChR expressed in xenopus laevis oocytes assessed as inhibition of acetylcholine-induced response by two electrode voltage-clamp assay; format: cell-based, Oocyte
# T1 sequence (Q9UGM1 whole entry): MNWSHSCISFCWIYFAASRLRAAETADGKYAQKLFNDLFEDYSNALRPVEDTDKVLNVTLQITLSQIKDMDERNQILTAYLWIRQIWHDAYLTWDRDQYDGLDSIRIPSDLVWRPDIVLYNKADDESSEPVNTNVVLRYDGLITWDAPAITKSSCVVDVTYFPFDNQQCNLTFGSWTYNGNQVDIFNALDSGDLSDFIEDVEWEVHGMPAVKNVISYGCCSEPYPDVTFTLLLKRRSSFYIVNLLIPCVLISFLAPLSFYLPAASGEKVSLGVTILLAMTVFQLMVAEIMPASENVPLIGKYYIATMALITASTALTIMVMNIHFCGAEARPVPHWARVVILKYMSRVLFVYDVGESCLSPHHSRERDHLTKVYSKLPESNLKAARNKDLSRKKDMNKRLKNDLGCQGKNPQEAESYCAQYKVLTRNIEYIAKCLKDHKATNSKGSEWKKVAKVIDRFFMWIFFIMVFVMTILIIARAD
# [2] = target: T2, Neuronal acetylcholine receptor subunit alpha-7 (Homo sapiens, UniProt P36544); assay: Antagonist activity at human alpha7 nAChR expressed in acetylcholine-treated xenopus laevis oocytes at 30 uM by two electrode voltage-clamp assay; format: cell-based; details: Oocyte, filed as antagonist
# T2 sequence (P36544 whole entry): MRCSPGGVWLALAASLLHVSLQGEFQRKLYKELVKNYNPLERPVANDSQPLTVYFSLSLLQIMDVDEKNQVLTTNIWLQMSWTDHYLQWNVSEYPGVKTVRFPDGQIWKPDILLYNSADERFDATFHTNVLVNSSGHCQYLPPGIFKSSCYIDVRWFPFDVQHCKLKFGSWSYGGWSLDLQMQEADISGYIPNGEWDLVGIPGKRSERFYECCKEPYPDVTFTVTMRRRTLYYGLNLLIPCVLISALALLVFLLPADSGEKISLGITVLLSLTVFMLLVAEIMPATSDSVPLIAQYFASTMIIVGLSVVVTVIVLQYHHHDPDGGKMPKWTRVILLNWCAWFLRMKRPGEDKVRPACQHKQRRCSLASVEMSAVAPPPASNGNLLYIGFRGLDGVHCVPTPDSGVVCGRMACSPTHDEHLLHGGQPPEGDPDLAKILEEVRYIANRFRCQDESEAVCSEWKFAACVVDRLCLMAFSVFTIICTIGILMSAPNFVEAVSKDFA
# [3] = target: T2, Neuronal acetylcholine receptor subunit alpha-7; assay: Antagonist activity at human alpha7 nAChR expressed in xenopus laevis oocytes assessed as inhibition of acetylcholine-induced response by two electrode voltage-clamp assay; format: cell-based, Oocyte
# [4] = target: T2, Neuronal acetylcholine receptor subunit alpha-7; assay: Desensitization of human alpha7 nAChR expressed in acetylcholine-treated xenopus laevis oocytes at 30 uM by two electrode voltage-clamp assay; format: cell-based; details: Oocyte
# [5] = target: T2, Neuronal acetylcholine receptor subunit alpha-7; assay: Desensitization of human alpha7 nAChR expressed in acetylcholine-treated xenopus laevis oocytes at 30 uM pretreated with acetylcholine followed by compound treatment and re-treatment of acetylcholine by two electrode voltage-clamp assay; format: cell-based; details: Oocyte
# [6] = target: T2, Neuronal acetylcholine receptor subunit alpha-7; assay: Silent agonist activity at human alpha7 nAChR expressed in acetylcholine-treated xenopus laevis oocytes at 30 uM in presence of PNU-120596 by two electrode voltage-clamp assay; format: cell-based; details: Oocyte
# [7] = target: T2, Neuronal acetylcholine receptor subunit alpha-7; assay: Agonist activity at human alpha7 nAChR expressed in xenopus laevis oocytes assessed as activation of acetylcholine-induced response by two electrode voltage-clamp assay (reference value: 1); format: cell-based; details: Oocyte, filed as agonist
# [8] = target: T2, Neuronal acetylcholine receptor subunit alpha-7; assay: Agonist activity at human alpha7 nAChR expressed in xenopus laevis oocytes assessed as activation of acetylcholine-induced response by two electrode voltage-clamp assay; format: cell-based, Oocyte
# [9] = target: T2, Neuronal acetylcholine receptor subunit alpha-7; assay: Silent agonist activity at human alpha7 nAChR expressed in acetylcholine-treated xenopus laevis oocytes assessed as relative response at 30 uM by two electrode voltage-clamp assay; format: cell-based; details: Oocyte, filed as agonist
# Mus musculus [10] = assay: Effect on von Frey responses in C57BL/6J mouse model of CFA-induced chronic inflammatory pain at 0.3 to 1 mg/kg, ip measured for 0.5 to 6 hrs; format: functional, organism-based; details: dose 0.3-1 mg/kg, time 0.5-6 hrs
# Mus musculus [11] = assay: Anti-allodynic effect in C57BL/6J mouse model of CFA-induced chronic inflammatory pain assessed as reduction in mechanical hypersensitivity at 0.3 mg/kg, ip measured after 1 hr; format: functional, organism-based
# Mus musculus [12] = assay: Anti-inflammatory activity in C57BL/6J mouse model of CFA-induced chronic inflammatory pain assessed as reduction in paw edema at 1 mg/kg, ip measured for 0.5 to 6 hrs; format: functional, organism-based; details: time 0.5-6 hrs
# [13] = target: T2, Neuronal acetylcholine receptor subunit alpha-7; assay: Silent agonist activity at human alpha7 nAChR expressed in acetylcholine-treated xenopus laevis oocytes assessed as potentiated response at 30 uM in presence of PNU-120596 by two electrode voltage-clamp assay; format: cell-based; details: Oocyte, filed as agonist
# Mus musculus [14] = assay: Anti-allodynic effect in C57BL/6J mouse model of CFA-induced chronic inflammatory pain assessed as reduction in mechanical hypersensitivity at 0.3 to 1 mg/kg, ip measured for 6 hrs; format: functional, organism-based; details: dose 0.3-1 mg/kg
# Mus musculus [15] = assay: Anti-allodynic effect in C57BL/6J mouse model of CFA-induced chronic inflammatory pain assessed as reduction in mechanical hypersensitivity at 1 mg/kg, ip measured for 1 hr relative to control; format: functional; set-up: scale not given: the % may be the effect or the level left
# Mus musculus [16] = assay: Anti-nociceptive effect in CFA C57BL/6J mouse model with alpha7 nAChR knockout at 1 mg/kg, ip measured after 3 days; format: functional, organism-based; details: time 3.0 day
# Mus musculus [17] = assay: Effect on locomotor activity in C57BL/6J mouse model of CFA-induced chronic inflammatory pain at 1 mg/kg, ip measured for 0.5 to 6 hrs; format: functional, organism-based; details: time 0.5-6 hrs
# Mus musculus [18] = assay: Anti-inflammatory activity in C57BL/6J mouse model of CFA-induced chronic inflammatory pain assessed as reduction in paw edema at 1 to 3 mg/kg, ip measured for 0.5 to 6 hrs; format: functional, organism-based; details: dose 1-3 mg/kg, time 0.5-6 hrs
# Mus musculus [19] = assay: Anti-allodynic effect in C57BL/6J mouse model of CFA-induced chronic inflammatory pain assessed as reduction in mechanical hypersensitivity at 3 mg/kg, ip measured after 6 hrs; format: functional, organism-based
# Mus musculus [20] = assay: Effect on locomotor activity in C57BL/6J mouse model of CFA-induced chronic inflammatory pain at 3 mg/kg, ip measured for 0.5 to 6 hrs; format: functional, organism-based; details: time 0.5-6 hrs
# Mus musculus [21] = assay: Effect on von Frey responses in C57BL/6J mouse model of CFA-induced chronic inflammatory pain at 1 to 3 mg/kg, ip measured for 0.5 to 6 hrs; format: functional, organism-based; details: dose 1-3 mg/kg, time 0.5-6 hrs
# [22] = target: T1, Neuronal acetylcholine receptor subunit alpha-9; assay: Agonist activity at human alpha9 nAChR expressed in xenopus laevis oocytes assessed as activation of acetylcholine-induced response by two electrode voltage-clamp assay; format: cell-based, Oocyte
# Mus musculus [23] = assay: Anti-allodynic effect in C57BL/6J mouse model of CFA-induced chronic inflammatory pain assessed as reduction in mechanical hypersensitivity at 3 mg/kg, ip measured after 1 hr; format: functional, organism-based
# [24] = target: T1, Neuronal acetylcholine receptor subunit alpha-9; assay: Agonist activity at human alpha9 nAChR expressed in xenopus laevis oocytes assessed as activation of acetylcholine-induced response by two electrode voltage-clamp assay (reference value: 1); format: cell-based; details: Oocyte, filed as agonist
# [25] = target: T2, Neuronal acetylcholine receptor subunit alpha-7; assay: Desensitization of human alpha7 nAChR expressed in acetylcholine-treated xenopus laevis oocytes at 30 uM pretreated with acetylcholine followed by compound treatment and re-treatment of acetylcholine thrice by two electrode voltage-clamp assay; format: cell-based; details: Oocyte
# [26] = target: T1, Neuronal acetylcholine receptor subunit alpha-9; assay: Activation of human alpha9 nAChR expressed in xenopus laevis oocytes at 30 uM by two electrode voltage-clamp assay; format: cell-based; details: Oocyte
# [27] = target: T1, Neuronal acetylcholine receptor subunit alpha-9; assay: Silent agonist activity at human alpha9 nAChR expressed in acetylcholine-treated xenopus laevis oocytes at 30 uM by two electrode voltage-clamp assay; format: cell-based; details: Oocyte, filed as agonist
structure (smiles),measurement,setting,value
CC[S+]1CCCN(C(=O)c2ccc(-c3cccc(C(F)(F)F)c3)o2)CC1 (stereo unspecified),IC50,[1],4.03 µM
same,Activity,[2],Active
same,IC50,[3],26.3 µM
C1C[S+]2CCC(CC2)N1,Activity,[4],inactive
same,Activity,[5],inactive
same,Activity,[6],inactive
same,max activation,[7],0.98
same,EC50,[8],41 µM
CC[S+]1CCN(C(=O)c2ccc(-c3cccc(C(F)(F)F)c3)o2)CC1.O=S(=O)([O-])C(F)(F)F,Activity,[9],0.016
same,Activity,Mus musculus [10],No effect
same,Activity,[6]; filed as agonist,Active; Silent Agonist Activity Observed
same,Activity,Mus musculus [11],Active
same,Activity,Mus musculus [12],Active
same,Activity,[13],11.2
same,Activity,Mus musculus [14],inactive
same,Activity,Mus musculus [15],100%
same,Activity,Mus musculus [16],Active
same,Activity,Mus musculus [17],No effect
C[S+](C)CCNC(=O)c1ccc(-c2cccc(C(F)(F)F)c2)o1,Activity,[6],inactive
O=C(c1ccc(-c2cccc(C(F)(F)F)c2)o1)N1CCCSCC1,Activity,[6],inactive
CC[S+](CC)CCNC(=O)c1ccc(-c2cccc(C(F)(F)F)c2)o1,Activity,Mus musculus [18],inactive
same,Activity,Mus musculus [19],inactive
same,Activity,Mus musculus [20],No effect
same,Activity,Mus musculus [21],No effect
same,Activity,[2],Active
same,EC50,[22],2.38 µM
same,Activity,Mus musculus [23],Active
same,max activation,[24],0.18
same,IC50,[3],2.82 µM
CCSCCNC(=O)c1ccc(-c2cccc(C(F)(F)F)c2)o1,Activity,[6],inactive
C[S+]1CCN(C(=O)c2ccc(-c3cccc(C(F)(F)F)c3)o2)CC1,Activity,[4]; filed as agonist,Active; Silent Agonist Activity Observed
same,Activity,[6],inactive
same,max activation,[7],0.26
same,Activity,[25],inactive
same,EC50,[8],2.4 µM
C[S+]1CCCN(C(=O)c2ccc(-c3cccc(C(F)(F)F)c3)o2)CC1 (stereo unspecified),Activity,[6]; filed as agonist,Active; Silent Agonist Activity Observed
same,IC50,[1],7.9 µM
C[S+](C)CCCNC(=O)c1ccc(-c2cccc(C(F)(F)F)c2)o1,Activity,[6]; filed as agonist,Active; Silent Agonist Activity Observed
O=C(c1ccc(-c2cccc(C(F)(F)F)c2)o1)N1CCN2CCC1CC2,Activity,[26],inactive
same,Activity,[27],Active; Silent Agonist Activity Observed
O=C(c1ccc(-c2cccc(C(F)(F)F)c2)o1)N1CC[S+]2CCC1CC2,Activity,[2],Active
same,IC50,[3],5.24 µM
CSCCCNC(=O)c1ccc(-c2cccc(C(F)(F)F)c2)o1,Activity,[6],inactive
O=C(c1ccc(-c2cccc(C(F)(F)F)c2)o1)N1CCSCC1,Activity,[6],inactive
O=C(c1ccco1)N1CC[S+]2CCC1CC2,Activity,[2],Active
CSCCNC(=O)c1ccc(-c2cccc(C(F)(F)F)c2)o1,Activity,[6],inactive
